# Test results published in patent US12139458B2, “(2,5-dioxopyrrolidin-1-yl)(phenyl)-acetamide derivatives and their use in the treatment of neurological diseases” (UNIWERSYTET JAGIELLONSKI, priority 2019, dated 2024).
# Tested on: Ca2+ channel type L (diltiazem binding site)
# Test: Ca2+ channel type L (diltiazem binding site) affinity study
# Conditions: 100 μM, rat cerebral cortex
# From the text: A unique feature of the compound 6 representing compounds of formula (II) according to the invention is the inhibition of calcium currents by blocking the transient receptor potential vanilloid type 1 (TRPV1). This effect has not been disclosed for known AEDs. TRPV1 receptor antagonism may determine the antinociceptive effect of the compounds disclosed herein. The role of the TRPV1 receptor in conduction of pain stimuli has been well documented in specialist literature (Szallasi, A.; Cortright, D. N.; Blum, C. A.; Eid, S. R. Nat. Rev. Drug. Discov. 2007, 6, 357-372). The compounds according to the invention are characterized by a complex mechanism of action, which is not described for known anticonvulsants. It should be emphasized, however, that further in vitro studies may reveal further molecular targets responsible for the pharmacological action of substances being the subject of current patent claim. The results of binding studies (sodium channel, calcium channel) and functional tests (TRPV1 receptor) for compound 6 are shown in Table 3.
smiles,measurement,value
"O=C(C(c1ccccc1)N1C(=O)CCC1=O)N1CCN(c2cccc(C(F)(F)F)c2)CC1 (racemic) [Compound 6, 1-(2-Oxo-1-phenyl-2-(4-(3-(trifluoromethyl)phenyl)piperazin-1-yl)ethyl)pyrrolidine-2,5-dione]","Inhibition of specific control binding, Ca2+ channel type L (diltiazem binding site)",69.6 (100) %
